Source: PubChem BioAssay (NCI)
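Dose response: 5 concentrations. Exposure: 48 h. Format: 96-well plates. Endpoint: linear interpolation; highest concentration if not reached. GI50 is the concentration that inhibits growth by half. The concentration for full growth arrest is given as TGI.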

Key:
Assay in all cases: NCI-60 cell line screen, 48 h
SN12C renal = system: SN12C renal
EKVX NSCLC = system: EKVX NSCLC
SF-268 CNS = system: SF-268 CNS
K-562 leukemia = system: K-562 leukemia
SK-MEL-5 melanoma = system: SK-MEL-5 melanoma
MALME-3M melanoma = system: MALME-3M melanoma
SNB-19 CNS = system: SNB-19 CNS
HL-60(TB) leukemia = system: HL-60(TB) leukemia
LOX IMVI melanoma = system: LOX IMVI melanoma
OVCAR-3 ovarian = system: OVCAR-3 ovarian

| SMILES | TGI (SN12C renal) [µM] | TGI (EKVX NSCLC) [µM] | TGI (SF-268 CNS) [µM] | TGI (K-562 leukemia) [µM] | TGI (SK-MEL-5 melanoma) [µM] | TGI (MALME-3M melanoma) [µM] | TGI (SNB-19 CNS) [µM] | TGI (HL-60(TB) leukemia) [µM] | TGI (LOX IMVI melanoma) [µM] | TGI (OVCAR-3 ovarian) [µM] | GI50 (SN12C renal) [µM] | GI50 (EKVX NSCLC) [µM] | GI50 (OVCAR-3 ovarian) [µM] | GI50 (SF-268 CNS) [µM] | GI50 (K-562 leukemia) [µM] | GI50 (SK-MEL-5 melanoma) [µM] | GI50 (MALME-3M melanoma) [µM] | GI50 (SNB-19 CNS) [µM] | GI50 (HL-60(TB) leukemia) [µM] | GI50 (LOX IMVI melanoma) [µM] |
| --- | --- | --- | --- | --- | --- | --- | --- | --- | --- | --- | --- | --- | --- | --- | --- | --- | --- | --- | --- | --- |
| Cn1ncc2c(=O)[nH]c(-c3ccccc3)nc21 | > 100 | > 100 | > 100 | > 100 | > 100 | > 100 | > 100 | > 100 | > 100 |  |  |  |  |  |  |  |  |  |  |  |
| CCc1cc(C)cc2[n+]1CC=C2C | > 100 | > 100 | > 100 |  | > 100 | > 100 | > 100 | > 100 | > 100 | > 100 |  |  |  |  |  |  |  |  |  |  |
| N=C(N)SC(c1ccccc1)c1ccccc1 | 32.7 | 33.6 | 78.5 | 85.3 | 32.2 | 34.6 | > 100 | 36.8 | 30.7 | 28.7 |  |  |  |  |  |  |  |  |  |  |
| O=C(Nc1ccc(-n2ccc3c(NC(=O)c4ccccc4)ncnc32)cc1)Nc1ccc(Cl)c(C(F)(F)F)c1 | 6.58 | 4.99 | 4.99 | 5.04 | 11.3 | 4.54 | 7.18 | 6.93 | 6.77 | 3.22 | 2.43 | 1.97 | 1.72 | 2.02 | 1.45 | 2.43 | 1.94 | 2.43 | 2.92 | 2 |
| O=C1CC(c2ccccc2)NCCCCN2CC(CN1)C(C(O)c1ccccc1)C2=O (centres undefined) | > 100 | > 100 | > 100 |  | > 100 | > 100 | > 100 | > 100 | > 100 | > 100 |  |  |  |  |  |  |  |  |  |  |
| NS(=O)(=O)c1ccc(C(=O)O)cc1 | > 100 | > 100 | > 100 | > 100 | > 100 | > 100 | > 100 | > 100 | > 100 | > 100 |  |  |  |  |  |  |  |  |  |  |
| COc1ccc2c(c1)C(=O)c1c-2n(CCCCl)c(=O)c2cc([N+](=O)[O-])ccc12 | > 20.3 | > 100 |  | > 100 | 2.07 | 0.461 | > 100 | 0.147 | 0.111 | 14 |  | 30.8 | 1.32 | < 0.0262 |  | 0.498 | 0.0533 | < 0.0505 | < 0.037 | < 0.01 |
| COc1cc2c(cc1OCCCOc1cc3c(cc1OC)C(=O)N1CC(F)(F)C[C@H]1C=N3)N=C[C@@H]1CC(F)(F)CN1C2=O | > 37.2 | 7.06 | 17.8 | 4.81 | 2.39 | 3.19 | 18.3 | 2 | 2.65 | 6.99 | 0.269 | 1.66 | 0.42 | 0.216 | 0.601 | 1.15 | 1.27 | 0.446 | 0.0984 | 0.256 |
| Cc1cccc(NC(N)=S)c1 | > 100 | > 100 | > 100 | > 100 |  | > 100 | > 100 | > 100 | > 100 | > 100 |  |  |  |  |  |  |  |  |  |  |
| CC(C)(c1ccccc1)c1ccc(Oc2ccc3c(c2)-c2nc-3nc3[nH]c(nc4nc(nc5[nH]c(n2)c2ccc(Oc6ccc(C(C)(C)c7ccccc7)cc6)cc52)-c2cc(Oc5ccc(C(C)(C)c6ccccc6)cc5)ccc2-4)c2ccc(Oc4ccc(C(C)(C)c5ccccc5)cc4)cc32)cc1 |  | > 100 |  | > 100 | > 100 | > 100 | > 100 | > 100 | > 100 |  |  |  |  |  |  |  |  |  |  |  |
| Nc1ccc([As](=O)(O)O)cc1 | > 100 | > 100 | > 100 | > 100 | > 100 | > 100 | > 100 | > 100 | > 100 | > 100 |  |  |  |  |  |  |  |  |  |  |
| Cc1cc(N2CCCCC2)nc(NCc2cc(Nc3ccnc4cc(Cl)ccc34)ccc2F)n1 | 3.62 | 3.77 | 3.11 | 5.17 | 2.25 |  | 6.33 | 3.97 | 3.29 | 3.17 | 1.67 | 1.62 | 1.74 | 1.35 | 2.07 | 1.05 |  | 1.87 | 1.93 | 1.73 |
| Cc1nc2ccccc2c(=O)n1Nc1ccc(C(=O)O)cc1 | > 100 | > 100 | > 100 | > 100 | > 100 | > 100 | > 100 | > 100 | > 100 | > 100 |  |  |  |  |  |  |  |  |  |  |
| CN(C)C=O.CN(C)C=O.CN1C(C(=O)Nc2ccccn2)=C([O-])c2ccccc2S1(=O)=O.CN1C(C(=O)Nc2ccccn2)=C([O-])c2ccccc2S1(=O)=O.[Cu+2] | > 100 | > 100 | > 100 | > 100 | 36.8 | > 100 | 41.2 | > 100 | > 100 | > 100 |  |  |  |  | > 100 |  |  |  |  |  |
